Target: pre-miR-122 loop
Assay: NMR titration binding screen against pre-miR-122 loop
Design: species or system human
Settings: NMR titration experiments
From the text: The apical loop sequence of human pre-miR 122 RNA sequence was investigated as an example. Two base pairs at the 5′- and 3′-ends of the sequence were modified from the native pre-miR 122 sequence in order to stabilize the 24-mer stem loop construct for NMR studies (5′-[…]-3′) (SEQ ID NO: 2).
Because pre-miR-122 is cleaved near the helix-apical loop interface, the apical loop was targeted to identify binding pockets. […] Given the size and plasticity of the loop, it was hypothesized that the loop could assume different conformations to bind small molecules. To identify small molecule binding pockets, each of the 60 small molecules in Nymirum's small molecule library was screened against the pre-miR-122 loop using NMR titration experiments. Two small molecules, NC1404 (9-aminoacridine) and NC1444 (L-arg-p-nitroanilide), were identified to bind with Kds of 71.7±9.0 μM and 17.6±3.25 μM respectively (FIGS. 12A and 12B). Using the same procedure detailed for A-site, bound-state chemical shifts for NC1404 and NC1444 were measured, used to solve a bound-state pre-miR-122 structure and a binding pocket for each compound was identified (FIGS. 12A and 12B). […]

Nc1c2ccccc2nc2ccccc12 [NC1404, 9-aminoacridine]
Kd: 71.7 ± 9 µM

N=C(N)NCCC[C@H](N)C(=O)Nc1ccc([N+](=O)[O-])cc1 [NC1444, L-arg-p-nitroanilide]
Kd: 17.6 ± 3.25 µM

— patent US10522239B2, “Small molecule binding pockets in nucleic acids” (Nymirum, Inc., priority 2012, dated 2019)
